Like-named read-outs stand apart in the source and are kept apart here.
What was measured:
Wistar rats = assay: diuretic effect; assay type: in vivo; settings: urine collected for 6 hours; for Increase in K⁺ excretion (%) / Increase in Na⁺excretion (%) / Increase in Urine (%): relative to control; for Na⁺/K⁺: relative value of control (control 1.00)
Experimental: Wistar rats (male: 150 - 300 g) were starved for 18 hours prior to the administration of the test compounds. […] Urine was collected for 6 hours after the administration. Urine volume was measured and the electrolytes (Na+ and K+) in the urine were determined with a flame photome[…], Hitachi Ltd., Japan). All parameters are expressed as relative values of control.

[1] = tested on: glycerol-induced renal failure model; assay: renal-protecting effect (glycerol-induced renal failure model); assay type: in vivo; settings: male Wistar rats; for suppression of increases of the serum creatinine and of urine-nitrogen: 0.01 - 10 mg/kg i.p., 24 hours after 50% glycerol s.c. (p < 0.05)
Experimental: A renal failure is a state wherein the renal function is lowered and the homeostasis of a body fluid can be no more maintained. It is known that an acute renal failure characteristic of uriniferous tubule disorder is caused by subcutaneous or intramuscular injection of glycerol to rats [Can. J. Physiol.
Male Wistar rats were kept deprived or water for 18 hours, and served for the test. A test compound was intraperitoneally administered to the rats (dosage: 1 mℓ/kg) and the rats were anesthetized with ether and 50% glycerol was subcutaneously administered (dosage: 0.8mℓ/100g) to the rats, pinching the dorsal skin. Twenty four hours after the administration of glycerol, the rats were anesthetized with ether and 5 mℓ of blood were collected from the abdominal aorta. The collected blood was allowed to stand for 30 minutes or longer and then centrifuged at 3,000 rpm for 10 minutes, and the amounts of the serum creatinine and urine-nitrogen (UN) contained in the serum were determined by auto analyzer (Olympus AU510) or measured by a creatinine test Wako (Jaffé method) and UN Test Wako (diacetylmonooxime direct method). Both are manufactured by Wako Pure Chemicals Co.
On the other hand, the left kidneys of the blood-sampled rats were removed and placed in formalin-filled vial bottles, and used as samples for the pathological examination.

male dd-strain mice = assay: acute toxicity test; assay type: in vivo
Experimental: […]. The Minimum lethal dose (MLD) of the compounds was determined by observing whether or not the mice were alive after 7 days of the administration.

Adenosine A₁ Receptor = target: T1, Adenosine A₁ Receptor (Cavia porcellus, UniProt P47745); assay: Adenosine A1 receptor binding (3H-CHA binding); set-up: species or system guinea pig
T1 construct: from tissue; host or cells: guinea pig cerebrum membrane preparation
T1 sequence (P47745 1-326): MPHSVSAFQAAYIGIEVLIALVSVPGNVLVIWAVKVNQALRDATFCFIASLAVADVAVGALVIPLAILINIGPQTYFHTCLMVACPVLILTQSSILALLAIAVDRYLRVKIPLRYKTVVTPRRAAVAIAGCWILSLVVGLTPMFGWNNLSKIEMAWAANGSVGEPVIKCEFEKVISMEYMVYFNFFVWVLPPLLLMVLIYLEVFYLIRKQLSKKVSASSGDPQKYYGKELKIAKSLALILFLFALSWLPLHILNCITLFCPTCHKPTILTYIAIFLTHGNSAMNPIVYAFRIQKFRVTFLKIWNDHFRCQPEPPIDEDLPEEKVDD
Experimental: Cerebrum of a guinea pig was suspended into ice cooled 50 mM tris hydroxymethyl aminomethane hydrochloride (Tris HCl) buffer (pH = 7.7), by using Polytron homogenizer (manufactured by Kinematica Co.). The suspension was centrifuged (50,000 x g, 10 minutes), and the precipitate was resuspended by adding the same volume of 50 mM Tris HCl buffer. The suspension was centrifuged under the same conditions, and the precipitate obtained was suspended once again by adding 10 volumes of 50 mM Tris HCl. The tissue suspension was incubated at 37°C for 30 minutes in the presence of 0.02 units/mg tissue of adenosine deaminase (manufactured by Sigma Co.). The resulting tissue suspension was recentrifuged (50,000 x g, 10 minutes), and 50 mM Tris HCl was added to the precipitate to adjust the concentration of tissue to 10 mg (wet weight)/mℓ.
The mixture was incubated at 25°C for 90 minutes, and the resulting reaction was stopped by rapid vacuum filtration through a glass fiber filter (GF/C manufactured by Whatman Co.) followed by immediately washing three times with 5 mℓ each of ice cold 50 mM Tris HCl buffer. […] Its radioactivity was then determined by a scintillation counter (manufactured by Packard Instrument Co.).
The inhibition rate of the test compounds against the binding of A₁ […] (³H-CHA binding) was calculated from the following equation: [formula]
• 1. […] The inhibition constant (Ki value) shown in the table was calculated from Cheng-Prusoff's equation.

A₂ receptor = target: T2, A₂ receptor (Rattus norvegicus, UniProt P30543); assay: Adenosine A2 receptor binding (3H-NECA binding); settings: for inhibition at 10 µM / inhibition at 100 µM: read-out: A₂ Receptor Inhibition (%)
T2 construct: A precipitate was prepared from rat corpus striatum; from tissue; host or cells: rat corpus striatum membrane preparation
T2 sequence (P30543 whole entry): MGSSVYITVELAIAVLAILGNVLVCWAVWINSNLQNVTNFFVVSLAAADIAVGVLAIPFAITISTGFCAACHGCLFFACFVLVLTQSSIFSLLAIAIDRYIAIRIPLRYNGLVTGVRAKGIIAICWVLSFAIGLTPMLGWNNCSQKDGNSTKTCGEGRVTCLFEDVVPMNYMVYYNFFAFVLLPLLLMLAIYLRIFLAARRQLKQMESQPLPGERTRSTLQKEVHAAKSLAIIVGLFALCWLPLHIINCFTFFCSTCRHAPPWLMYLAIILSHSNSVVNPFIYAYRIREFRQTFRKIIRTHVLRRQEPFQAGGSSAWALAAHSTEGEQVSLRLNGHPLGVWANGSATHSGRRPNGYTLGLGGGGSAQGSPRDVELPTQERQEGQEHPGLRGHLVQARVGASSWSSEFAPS
Experimental: A precipitate was prepared from rat corpus striatum in a similar manner as in 1) above. The precipitate was suspended by adding a 50 mM Tris HCl buffer containing 10 mM magnesium chloride and 0.02 unit/mg (tissue) of adenosine deaminase (manufactured by Sigma Co.) to adjust the concentration of tissue to 5 mg (wet weight)/mℓ.
The mixture was incubated at 25°C within 120 minutes. The resulting mixture was treated in the same manner as in 1) above to determine its radioactivity.
The inhibition rate of the test compound against the binding of A₂ receptor (³H-NECA binding) was calculated from the following equation: [formula]

[2] = amount of the administration 6.25 mg.kg, oral
[3] = 300 mg/kg orally administered, male dd-strain mice, observed 7 days after administration

Compound	Increase in K⁺ excretion (%) (Wistar rats; 25 mg/kg oral)	Increase in Na⁺excretion (%) (Wistar rats; 25 mg/kg oral)	Increase in Urine (%) (Wistar rats; 25 mg/kg oral)	Na⁺/K⁺ (Wistar rats; 25 mg/kg oral)	Minimum lethal dose (MLD) (male dd-strain mice; mouse, in vivo, 10080 min)	other results
8-[(1R*,2R*,5S*)-Bicyclo[2.2.1]heptan-2-yl]methyl-1,3-dipropylxanthine [Compound 16]	38%	191%	141%	2.12		suppression of increases of the serum creatinine and of urine-nitrogen [1]: significantly suppressed; pathological examination of removed kidneys: state of kidneys ([1]; i.p., left kidney removed 24 hours after 50% glycerol s.c.): significantly improved
CCCn1c(=O)c2[nH]c([C@@H]3C[C@@H]4C=C[C@@H]3C4)nc2n(CCC)c1=O (relative stereo) [Compound 2, 8-[(1R*,4S*,5R*)-2-bicyclo[2.2.1]hepten-5-yl]-1,3-dipropylxanthine]	67%	109%	87%	1.25	more than 300 mg/kg	
CCCn1c(=O)c2[nH]c([C@H]3CC[C@H]4CCC[C@H]43)nc2n(CCC)c1=O (relative stereo) [Compound 6, 8-[(1R*,2S*,5R*)-bicyclo[3.3.0]oxtan-2-yl]-1,3-dipropylxanthine]						Ratio of Ki Values [A₂/A₁] (Adenosine A₁ Receptor; A₂ Ki (rat corpus striatum) / A₁ Ki (guinea pig cerebrum)): 112; Ki (Adenosine A₁ Receptor; calculated from Cheng-Prusoff's equation, ³H-CHA, guinea pig cerebrum): 5 nM; inhibition at 100 µM (Adenosine A₁ Receptor; concentration of tested compound 10⁻⁴ M, ³H-CHA 1.1 nM, guinea pig cerebrum): 101%; inhibition at 10 µM (Adenosine A₁ Receptor; concentration of tested compound 10⁻⁵ M, ³H-CHA 1.1 nM, guinea pig cerebrum): 100%; inhibition at 10 µM (A₂ receptor): 70%; inhibition at 100 µM (A₂ receptor): 85%; Ki (A₂ receptor; ³H-NECA with CPA, rat corpus striatum, read-out: A₂ Receptor Ki): 560 nM; Increase in K⁺ excretion (%) (Wistar rats; [2]): 87%; Increase in Na⁺excretion (%) (Wistar rats; [2]): 252%; Increase in Urine (%) (Wistar rats; [2]): 330%; Na⁺/K⁺ (Wistar rats; [2]): 1.88
CCCn1c(=O)c2c(nc([C@@H]3CC[C@H]4CCC[C@H]43)n2C)n(CCC)c1=O (relative stereo) [Compound 18, 8-[(1R*,2R*,5R*)-Bicyclo[3.3.0]octan-2-yl]-1,3-dipropyl-7-methylxanthine]					more than 300 mg/kg	
CCCn1c(=O)c2[nH]c([C@@H]3CC[C@H]4CCC[C@H]43)nc2n(CCC)c1=S (relative stereo) [Compound 24, 8-[(1R*,2R*,5R*)-Bicyclo[3.3.0]octan-2-yl]-1,3-dipropyl-2-thioxanthine]	61%	125%	112%	1.40		Minimum lethal dose (MLD) (male dd-strain mice; [3]): more than 300 mg/kg
Cn1c(=O)c2[nH]cnc2n(C)c1=O [Aminophylline, reference compound]	17%	89%	34%	1.62		suppression of increases of the serum creatinine and of urine-nitrogen [1]: weak effect
Nc1nc2ccc(Cl)cc2c2nc(-c3ccco3)nn12 [CGS 15943, reference compound]						Ki (A₂ receptor): 0.73 nM; inhibition at 10 µM (A₂ receptor): 99%; inhibition at 100 µM (A₂ receptor): 97%
CCCn1c(=O)c2nc(C3CC4CCC3C4)[nH]c2n(CCC)c1=O (stereo not drawn) [Compound 4, 8-[(1R*,2R*,5S*)-bicyclo[2.2.1)heptan-2-yl]-1,3-dipropylxanthine]	27%	106%	113%	1.63	more than 300 mg/kg	
CCCn1c(=O)c2[nH]c(Cc3csc(N)n3)nc2n(CCC)c1=O [Compound 12, 8-(2-Aminothiazol-4-yl)methyl-1,3-dipropylxanthine]	32%	103%	108%	1.54		Minimum lethal dose (MLD) (male dd-strain mice; [3]): 300 mg/kg
